Reference: the supplement of paper PMC10307832

Legend:
Experiment in all cases: relative viability (nuclei count vs DMSO), 5 days (fraction); higher = more cells survive
Bosutinib + Crizotinib = compound: COc1cc(Nc2c(C#N)cnc3cc(OCCCN4CCN(C)CC4)c(OC)cc23)c(Cl)cc1Cl [Bosutinib] + C[C@@H](Oc1cc(-c2cnn(C3CCNCC3)c2)cnc1N)c1c(Cl)ccc(F)c1Cl [Crizotinib] (partner 1 µM)
Procedure, shortened: (§1)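 Relative viability equals treated-well nuclei counts divided by vehicle-well nuclei counts. Counts came from 4× images of lung cancer cell lines grown in 1536-well plates for 5 days after pin-tool dosing on the day after seeding. Dosing used one drug alone or a fixed anchor-drug dose plus five library-drug doses (not always all listed) in √10 steps, and values are medians of duplicate plates.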

Bosutinib + Alpelisib = compound: COc1cc(Nc2c(C#N)cnc3cc(OCCCN4CCN(C)CC4)c(OC)cc23)c(Cl)cc1Cl [Bosutinib] + Cc1nc(NC(=O)N2CCC[C@H]2C(N)=O)sc1-c1ccnc(C(C)(C)C(F)(F)F)c1 [Alpelisib] (partner 2 µM)
Procedure, shortened: as §1

Bosutinib + Phenformin = compound: COc1cc(Nc2c(C#N)cnc3cc(OCCCN4CCN(C)CC4)c(OC)cc23)c(Cl)cc1Cl [Bosutinib] + N=C(N)NC(=N)NCCc1ccccc1 [Phenformin] (partner 250 µM)
Procedure, shortened: as §1

Bosutinib + Foretinib = compound: COc1cc(Nc2c(C#N)cnc3cc(OCCCN4CCN(C)CC4)c(OC)cc23)c(Cl)cc1Cl [Bosutinib] + COc1cc2c(Oc3ccc(NC(=O)C4(C(=O)Nc5ccc(F)cc5)CC4)cc3F)ccnc2cc1OCCCN1CCOCC1 [Foretinib] (partner 0.25 µM)
Procedure, shortened: as §1

Bosutinib + OSI-027 = compound: COc1cc(Nc2c(C#N)cnc3cc(OCCCN4CCN(C)CC4)c(OC)cc23)c(Cl)cc1Cl [Bosutinib] + COc1cccc2cc(-c3nc([C@H]4CC[C@H](C(=O)O)CC4)n4ncnc(N)c34)[nH]c12 [OSI-027] (partner 0.5 µM)
Procedure, shortened: as §1

| Cell Line | relative viability (Bosutinib + Crizotinib; first compound 0.01 µM) | relative viability (Bosutinib + Crizotinib; first compound 0.03162 µM) | relative viability (Bosutinib + Crizotinib; first compound 0.1 µM) | relative viability (Bosutinib + Crizotinib; first compound 1 µM) | relative viability (Bosutinib + Alpelisib; first compound 0.01 µM) | relative viability (Bosutinib + Alpelisib; first compound 0.03162 µM) | relative viability (Bosutinib + Alpelisib; first compound 0.1 µM) | relative viability (Bosutinib + Alpelisib; first compound 1 µM) | relative viability (Bosutinib + Phenformin; first compound 0.01 µM) | relative viability (Bosutinib + Phenformin; first compound 0.03162 µM) | relative viability (Bosutinib + Phenformin; first compound 0.1 µM) | relative viability (Bosutinib + Phenformin; first compound 1 µM) | relative viability (Bosutinib + Foretinib; first compound 0.01 µM) | relative viability (Bosutinib + Foretinib; first compound 0.03162 µM) | relative viability (Bosutinib + Foretinib; first compound 0.1 µM) | relative viability (Bosutinib + Foretinib; first compound 1 µM) | relative viability (Bosutinib + OSI-027; first compound 0.01 µM) | relative viability (Bosutinib + OSI-027; first compound 0.03162 µM) | relative viability (Bosutinib + OSI-027; first compound 0.1 µM) | relative viability (Bosutinib + OSI-027; first compound 1 µM) |
| --- | --- | --- | --- | --- | --- | --- | --- | --- | --- | --- | --- | --- | --- | --- | --- | --- | --- | --- | --- | --- |
| NCI-H1666 | 1.2 | 0.987 | 0.916 | 0.912 | 0.982 | 0.947 | 1.07 | 0.865 | 0.536 | 0.545 | 0.552 | 0.597 | 1.04 | 0.936 | 0.976 | 0.921 | 0.773 | 0.811 | 0.821 | 1.03 |
| NCI-H1734 | 0.737 | 0.656 | 0.658 | 0.537 | 0.642 | 0.632 | 0.748 | 0.59 | 0.455 | 0.382 | 0.375 | 0.312 | 0.888 | 0.837 | 0.849 | 0.719 | 0.584 | 0.609 | 0.684 | 0.538 |
| NCI-H1755 | 0.804 | 0.953 | 0.903 | 0.688 | 0.916 | 0.961 | 0.998 | 0.739 | 0.635 | 0.682 | 0.659 | 0.588 | 0.974 | 0.988 | 0.983 | 0.801 | 0.786 | 0.853 | 0.803 | 0.663 |
| NCI-H1915 | 0.932 | 0.89 | 0.98 | 0.956 | 1.03 | 1.07 | 1.1 | 1.06 | 0.365 | 0.365 | 0.382 | 0.348 | 1.07 | 1.1 | 1.11 | 1.11 | 0.646 | 0.671 | 0.71 | 0.669 |
| NCI-H1944 | 1.16 | 1.07 | 1.09 | 0.946 | 0.849 | 0.826 | 0.826 | 0.614 | 0.203 | 0.193 | 0.202 | 0.186 | 0.997 | 0.814 | 0.889 | 0.574 | 0.436 | 0.412 | 0.379 | 0.374 |
| NCI-H1975 | 0.926 | 0.965 | 1.01 | 0.849 | 0.615 | 0.688 | 0.67 | 0.433 | 0.401 | 0.447 | 0.437 | 0.403 | 0.981 | 0.975 | 0.977 | 0.841 | 0.735 | 0.761 | 0.697 | 0.534 |
| NCI-H1993 | 0.816 | 0.875 | 0.686 | 0.602 | 0.635 | 0.69 | 0.641 | 0.669 | 0.513 | 0.511 | 0.492 | 0.59 | 0.819 | 0.672 | 0.778 | 0.564 | 0.54 | 0.541 | 0.539 | 0.469 |
| NCI-H2009 | 1.05 | 1.07 | 1.03 | 0.66 | 1.2 | 1.15 | 1.1 | 0.767 | 0.53 | 0.49 | 0.423 | 0.346 | 1.22 | 1.24 | 1.2 | 0.857 | 0.681 | 0.799 | 0.746 | 0.522 |
